According to patent US9994587B2, “HIV protease inhibitors” (priority 2014, dated 2018):

Molecular target: T1, wildtype HIV-1 protease (Human immunodeficiency virus type 1 group M subtype B, UniProt P04585)
T1 construct: preincubated with the HIV-1 protease (wild type) enzyme in assay buffer; made in house; host or cells: Escherichia coli
Assay: Assay for inhibition of microbial expressed HIV protease (Pepcleav)
Format: biochemical
Details: wild type HIV-1 protease 20 pM, peptide substrate 400 micromolar, pH 5.5; mean of at least two independent experiments
Experimental: Assay for Inhibition of Microbial Expressed HIV Protease (“Pepcleav”)
Studies of the inhibition of the wildtype HIV-1 protease (which was expressed in Escherichia coli) were carried out with a peptide substrate [Val-Ser-Gln-Asn-(βnaphtyl)Ala-Pro-Ile-Val (SEQ ID NO 1)]. The inhibitor was first preincubated with the HIV-1 protease (wild type) enzyme in assay buffer (50 mM sodium acetate, pH 5.5, 100 mM NaCl, and 0.1% BSA) for 30 minutes at room temperature. Substrate was added to 400 micromolar in a total volume of 20 microliters containing 20 picomolar HIV-1 protease (final) and the reaction is incubated for 1 hour at 30° C. The reaction was quenched with the addition of formic acid and indinavir to 0.012% and 150 nM final concentrations, respectively. Product formation was determined after separation of product and substrate on a Zorbax Eclipse XDB-C18 column connected to an API 4000 mass spectrometer (Applied Biosystems) with multiple reaction monitoring (transitions were 644.5/428.9 and 615.4/422.2 (M1/M3) for product and indinavir respectively). The extent of inhibition of the reaction was determined from the peak area of the products.

Structure (SMILES)	IC50 [nM]
COC(=O)N[C@H](C(=O)Nc1ccccc1CCC1CNC[C@@H](COc2ccccc2-c2cc[nH]n2)O1)C(c1ccccc1)c1ccccc1 (stereo in doubt) [Example 110, Nα-(methoxycarbonyl)-β-phenyl-N-(2-{2-[(2R,6S)-6-{[2-(1H-pyrazol-3-yl)phenoxy]methyl}morpholin-2-yl]ethyl}phenyl)-L-phenylalaninamide]	250
COC(=O)N[C@H](C(=O)NCCCCC1CNC[C@@H](CS(=O)(=O)c2ccc(N)cc2)O1)C(c1ccccc1)c1ccccc1 (stereo partly drawn) [Example 1, Methyl N-[(1S)-1-[4-[(6S)-6-[(4-aminophenyl)sulfonylmethyl]morpholin-2-yl]butylcarbamoyl]-2,2-diphenyl-ethyl]carbamate]	450
COC(=O)N[C@H](C(=O)NCCCC1CNC[C@@H](CSc2ccc(Cl)cc2)O1)C(c1ccccc1)c1ccccc1 (stereo partly drawn) [Example 2, methyl N-[(1S)-1-benzhydryl-2-[3-[(6S)-6-[(4-chlorophenyl)sulfanylmethyl]morpholin-2-yl]propylamino]-2-oxo-ethyl]carbamate]	300
COC(=O)N[C@H](C(=O)NCCCC1CNC[C@@H](CSc2ccc(Cl)cc2C)O1)C(c1ccccc1)c1ccccc1 (stereo partly drawn) [Example 3, methyl N-[(1S)-1-benzhydryl-2-[3-[(6S)-6-[(4-chloro-2-methyl-phenyl)sulfanylmethyl]morpholin-2-yl]propylamino]-2-oxo-ethyl]carbamate]	420
COC(=O)N[C@H](C(=O)Nc1ccccc1CCC1CNC[C@@H](CS(=O)(=O)c2ccc3ccccc3c2)O1)C(c1ccccc1)c1ccccc1 (stereo partly drawn) [Example 4, methyl N-[(1S)-1-benzhydryl-2-[[2-[2-[(6S)-6-(2-naphthylsulfonylmethyl)morpholin-2-yl]ethyl]phenyl]amino]-2-oxo-ethyl]carbamate]	62
COC(=O)N[C@H](C(=O)Nc1ccccc1CCC1CNC[C@@H](COc2ccc(Cl)cc2)O1)C(c1ccccc1)c1ccccc1 (stereo partly drawn) [Example 5, methyl N-[(1S)-1-benzhydryl-2-[[2-[2-[(6S)-6-[(4-chlorophenoxy)methyl]morpholin-2-yl]ethyl]phenyl]amino]-2-oxo-ethyl]carbamate]	58
COC(=O)N[C@H](C(=O)Nc1ccccc1CCC1CNC[C@@H](CSc2ccc(Cl)cc2)O1)C(c1ccccc1)c1ccccc1 (stereo partly drawn) [Example 6, methyl N-[(1S)-1-benzhydryl-2-[[2-[2-[(6S)-6-[(4-chlorophenyl)sulfanylmethyl]morpholin-2-yl]ethyl]phenyl]amino]-2-oxo-ethyl]carbamate]	1.9
COC(=O)N[C@H](C(=O)Nc1ccccc1CC[C@@H]1CNC[C@@H](CSc2ccc(Cl)cc2)O1)C(c1ccccc1)c1ccccc1 [Example 7, methyl N-[(1S)-1-benzhydryl-2-[[2-[2-[(2R,6S)-6-[(4-chlorophenyl)sulfanylmethyl]morpholin-2-yl]ethyl]phenyl]amino]-2-oxo-ethyl]carbamate]	2
COC(=O)N[C@H](C(=O)Nc1ccccc1CC[C@@H]1CNC[C@@H](CSc2ccc(Br)cc2)O1)C(c1ccccc1)c1ccccc1 [Example 8, methyl N-[(1S)-1-benzhydryl-2-[[2-[2-[(2R,6S)-6-[(4-bromophenyl)sulfanylmethyl]morpholin-2-yl]ethyl]phenyl]amino]-2-oxo-ethyl]carbamate]	2.1
COC(=O)N[C@H](C(=O)Nc1ccccc1CC[C@@H]1CNC[C@@H](COc2ccc(Br)cc2)O1)C(c1ccccc1)c1ccccc1 [Example 9, methyl N-[(1S)-1-benzhydryl-2-[[2-[2-[(2R,6S)-6-[(4-bromophenoxy)methyl]morpholin-2-yl]ethyl]phenyl]amino]-2-oxo-ethyl]carbamate]	18
COC(=O)N[C@H](C(=O)Nc1ccccc1CC[C@@H]1CNC[C@@H](COc2ccc(Br)cc2[N+](=O)[O-])O1)C(c1ccccc1)c1ccccc1 [Example 10, methyl N-[(1S)-1-benzhydryl-2-[[2-[2-[(2R,6S)-6-[(4-bromo-2-nitro-phenoxy)methyl]morpholin-2-yl]ethyl]phenyl]amino]-2-oxo-ethyl]carbamate]	120
COC(=O)N[C@H](C(=O)Nc1ccccc1CC[C@@H]1CNC[C@@H](COc2ccc(-c3ccccc3)cc2)O1)C(c1ccccc1)c1ccccc1 [Example 11, methyl N-[(1S)-1-benzhydryl-2-oxo-2-[[2-[2-[(2R,6S)-6-[(4-phenylphenoxy)methyl]morpholin-2-yl]ethyl]phenyl]amino]ethyl] carbamate]	6.6
COC(=O)N[C@H](C(=O)Nc1ccccc1CC[C@@H]1CNC[C@@H](COc2ccc(Cc3ccccc3)cc2)O1)C(c1ccccc1)c1ccccc1 [Example 12, methyl N-[(1S)-1-benzhydryl-2-[[2-[2-[(2R,6S)-6-[(4-benzylphenoxy)methyl]morpholin-2-yl]ethyl]phenyl]amino]-2-oxo-ethyl]carbamate]	24
COC(=O)N[C@H](C(=O)Nc1ccccc1CC[C@@H]1CNC[C@@H](COc2ccc(Br)cc2N)O1)C(c1ccccc1)c1ccccc1 [Example 13, methyl N-[(1S)-1-[[2-[2-[(2R,6S)-6-[(2-amino-4-bromo-phenoxy)methyl]morpholin-2-yl]ethyl]phenyl]carbamoyl]-2,2-diphenyl-ethyl]carbamate]	21
COC(=O)N[C@H](C(=O)Nc1ccccc1CC[C@@H]1CNC[C@@H](COc2ccc(-n3ccnc3)cc2)O1)C(c1ccccc1)c1ccccc1 [Example 14, methyl N-[(1S)-1-benzhydryl-2-[[2-[2-[(2R,6S)-6-[(4-imidazol-1-ylphenoxy)methyl]morpholin-2-yl]ethyl]phenyl]amino]-2-oxo-ethyl]carbamate]	32
COC(=O)N[C@H](C(=O)Nc1ccccc1CC[C@@H]1CNC[C@@H](COc2ccc(-n3cncn3)cc2)O1)C(c1ccccc1)c1ccccc1 [Example 15, methyl N-[(1S)-1-benzhydryl-2-oxo-2-[[2-[2-[(2R,6S)-6-[[4-(1,2,4-triazol-1-yl)phenoxy]methyl]morpholin-2-yl]ethyl]phenyl]amino]ethyl] carbamate]	12
COC(=O)N[C@H](C(=O)Nc1ccccc1CC[C@@H]1CNC[C@@H](COc2ccc(S(C)(=O)=O)cc2)O1)C(c1ccccc1)c1ccccc1 [Example 16, methyl N-[(1S)-1-benzhydryl-2-[[2-[2-[(2R,6S)-6-[(4-methylsulfonylphenoxy)methyl]morpholin-2-yl]ethyl]phenyl]amino]-2-oxo-ethyl]carbamate]	19
COC(=O)N[C@H](C(=O)Nc1ccccc1CC[C@@H]1CNC[C@@H](COc2ccc(C#N)cc2)O1)C(c1ccccc1)c1ccccc1 [Example 17, methyl N-[(1S)-1-benzhydryl-2-[[2-[2-[(2R,6S)-6-[(4-cyanophenoxy)methyl]morpholin-2-yl]ethyl]phenyl]amino]-2-oxo-ethyl]carbamate]	21
COC(=O)N[C@H](C(=O)Nc1ccccc1CC[C@@H]1CNC[C@@H](CSc2cccc(Cl)c2)O1)C(c1ccccc1)c1ccccc1 [Example 18, methyl N-[(1S)-1-benzhydryl-2-[[2-[2-[(2R,6S)-6-[(3-chlorophenyl)sulfanylmethyl]morpholin-2-yl]ethyl]phenyl]amino]-2-oxo-ethyl]carbamate]	1.9
COC(=O)N[C@H](C(=O)Nc1ccccc1CC[C@@H]1CNC[C@@H](CSc2ccc(Cl)c(Cl)c2)O1)C(c1ccccc1)c1ccccc1 [Example 19, methyl N-[(1S)-1-benzhydryl-2-[[2-[2-[(2R,6S)-6-[(3,4-dichlorophenyl)sulfanylmethyl]morpholin-2-yl]ethyl]phenyl]amino]-2-oxo-ethyl]carbamate]	8.7
COC(=O)N[C@H](C(=O)Nc1ccccc1CC[C@@H]1CNC[C@@H](CSc2cccc(Br)c2)O1)C(c1ccccc1)c1ccccc1 [Example 20, methyl N-[(1S)-1-benzhydryl-2-[[2-[2-[(2R,6S)-6-[(3-bromophenyl)sulfanylmethyl]morpholin-2-yl]ethyl]phenyl]amino]-2-oxo-ethyl]carbamate]	2.9
COC(=O)N[C@H](C(=O)Nc1ccccc1CC[C@@H]1CNC[C@@H](CSc2ccc(S(C)(=O)=O)cc2)O1)C(c1ccccc1)c1ccccc1 [Example 21, methyl N-[(1S)-1-benzhydryl-2-[[2-[2-[(2R,6S)-6-[(4-methylsulfonylphenyl)sulfanyl-methyl]morpholin-2-yl]ethyl]phenyl]amino]-2-oxo-ethyl]carbamate]	0.86
COC(=O)N[C@H](C(=O)Nc1ccccc1CC[C@@H]1CNC[C@@H](CSc2ccc(C#N)cc2)O1)C(c1ccccc1)c1ccccc1 [Example 22, methyl N-[(1S)-1-benzhydryl-2-[[2-[2-[(2R,6S)-6-[(4-cyanophenyl)sulfanylmethyl]morpholin-2-yl]ethyl]phenyl]amino]-2-oxo-ethyl]carbamate]	1.1
COC(=O)N[C@H](C(=O)Nc1ccccc1CC[C@@H]1CNC[C@@H](CSc2cccc(S(C)(=O)=O)c2)O1)C(c1ccccc1)c1ccccc1 [Example 23, methyl N-[(1S)-1-benzhydryl-2-[[2-[2-[(2R,6S)-6-[(3-methylsulfonylphenyl)sulfanyl-methyl]morpholin-2-yl]ethyl]phenyl]amino]-2-oxo-ethyl]carbamate]	0.8
